What was measured:
[1] = target: T1, Oxysterols receptor LXR-alpha (Homo sapiens, UniProt Q13133); assay: Activity against LXR alpha transiently transfected in HEK293 cells; format: cell-based
T1 sequence (Q13133 whole entry): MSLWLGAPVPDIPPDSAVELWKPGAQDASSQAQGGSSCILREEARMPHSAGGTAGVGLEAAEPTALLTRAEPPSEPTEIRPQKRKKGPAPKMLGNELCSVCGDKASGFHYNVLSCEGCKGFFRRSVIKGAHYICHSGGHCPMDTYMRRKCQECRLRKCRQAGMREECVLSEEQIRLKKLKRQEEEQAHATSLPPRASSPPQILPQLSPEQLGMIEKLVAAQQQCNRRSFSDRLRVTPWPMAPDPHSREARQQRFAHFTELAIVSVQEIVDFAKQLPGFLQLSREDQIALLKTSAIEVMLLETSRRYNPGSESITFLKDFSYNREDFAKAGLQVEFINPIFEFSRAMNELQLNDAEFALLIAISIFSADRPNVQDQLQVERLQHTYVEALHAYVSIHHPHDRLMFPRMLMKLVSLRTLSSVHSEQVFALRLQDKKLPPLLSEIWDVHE

[2] = AUC in Sprague-Dawley rat at 5 mg/kg, po; format: ADME, organism-based; design: dose 5 mg/kg, route oral; conditions: plasma
[3] = Half life in dog at 5 mg/kg, po; format: ADME, organism-based, Canis lupus familiaris; design: dose 5 mg/kg, route oral; conditions: in vivo
[4] = Half life in mice at 5 mg/kg, po; format: ADME, organism-based; design: dose 5 mg/kg, route oral; conditions: mouse, in vivo
[5] = AUC in mice at 5 mg/kg, po; format: ADME, organism-based; design: dose 5 mg/kg, route oral; conditions: mouse, plasma
[6] = AUC in dog at 5 mg/kg, po; format: ADME, organism-based, Canis lupus familiaris; design: dose 5 mg/kg, route oral; conditions: plasma

SMILES	EC50 [1] [nM]	also measured
CN(C(=O)c1ccc(C(O)(C(F)(F)F)C(F)(F)F)cc1)c1ccccc1	200	–
CN(c1ccc(C(O)C(F)(F)F)cc1)S(=O)(=O)c1ccccc1 (stereo unspecified)	> 5000	–
COC(c1ccc(N(C)S(=O)(=O)c2ccccc2)cc1)(C(F)(F)F)C(F)(F)F	1000	–
CN(c1cccc(C(O)(C(F)(F)F)C(F)(F)F)c1)S(=O)(=O)c1ccccc1	1000	–
CN(c1ccc(C(O)(C(F)(F)F)C(F)(F)F)c(Cl)c1)S(=O)(=O)c1ccccc1	> 5000	–
CN(c1ccc(C(O)(C(F)(F)F)C(F)(F)F)cc1)S(=O)(=O)c1cccs1	600	–
CN(c1ccc(C(O)(C(F)(F)F)C(F)(F)F)cc1)S(=O)(=O)c1ccc(C#N)cc1	2000	–
CN(C(=O)c1ccccc1)c1ccc(C(O)(C(F)(F)F)C(F)(F)F)cc1	100	–
CN(c1ccc(C(O)(C(F)(F)F)C(F)(F)F)cc1Cl)S(=O)(=O)c1ccccc1	200	–
CN(Cc1ccc(C(O)(C(F)(F)F)C(F)(F)F)cc1)S(=O)(=O)c1ccccc1	3000	–
O=S(=O)(c1ccccc1)N1CCOc2cc(C(O)(C(F)(F)F)C(F)(F)F)ccc21	100	–
O=S(=O)(Nc1ccc(C(O)(C(F)(F)F)C(F)(F)F)cc1)c1ccccc1	4000	–
CN(c1ccc(C(C)(O)C(F)(F)F)cc1)S(=O)(=O)c1ccccc1 (stereo unspecified)	5000	–
CN(c1ccc(C(O)(C(F)(F)F)C(F)(F)F)cc1)S(=O)(=O)c1ccccc1C#N	700	–
C[C@H](CC[C@@H]1OC1(C)C)[C@H]1CC[C@H]2[C@@H]3CC=C4C[C@@H](O)CC[C@]4(C)[C@H]3CC[C@]12C [24(S),25-EPOXYCHOLESTEROL]	500	–
O=S(=O)(c1ccccc1)N(CC(F)(F)F)c1ccc(C(O)(C(F)(F)F)C(F)(F)F)cc1 [T091317]	–	half-life [3]: 348 min; AUC [2]: 5920 ng·h/mL; half-life [4]: 180 min; AUC [5]: 3420 ng·h/mL; AUC [6]: 7300 ng·h/mL

Continued, in another order:

EC50 [1] [nM]	SMILES	also measured
100	CN(c1ccccc1)S(=O)(=O)c1ccc(C(O)(C(F)(F)F)C(F)(F)F)cc1	–
100	CC(C)COC(=O)N(C)c1ccc(C(O)(C(F)(F)F)C(F)(F)F)cc1	–
50	O=S(=O)(c1ccccc1)N1CCc2cc(C(O)(C(F)(F)F)C(F)(F)F)ccc21	–
80	CN(c1ccc(C(O)(C(F)(F)F)C(F)(F)F)cc1)S(=O)(=O)c1cccc(S(N)(=O)=O)c1	–
20	CN(c1ccc(C(O)(C(F)(F)F)C(F)(F)F)cc1)S(=O)(=O)c1cccc(C#N)c1	–
30	CN(c1ccc(C(O)(C(F)(F)F)C(F)(F)F)cc1)S(=O)(=O)c1cccc(-c2ccccc2)c1	–
8	O=S(=O)(c1ccccc1)N(c1ccc(C(O)(C(F)(F)F)C(F)(F)F)cc1)C1CCCC1	–
10	O=S(=O)(c1ccccc1)N1CCCCc2cc(C(O)(C(F)(F)F)C(F)(F)F)ccc21	–
40	CC(C)CN(c1ccc(C(O)(C(F)(F)F)C(F)(F)F)cc1)S(=O)(=O)c1cccs1	AUC [2]: 3200 ng·h/mL
30	O=S(=O)(c1ccccc1)N1CCCc2cc(C(O)(C(F)(F)F)C(F)(F)F)ccc21	–

— ChEMBL document CHEMBL1146053, “Discovery and optimization of a novel series of liver X receptor-alpha agonists” (Bioorg Med Chem Lett, 2006)
